Test results: patent US8791102B2, “Acetanilide sphingosine-1-phosphate receptor antagonists” (Exelixis, Inc., priority 2008, dated 2014)

Molecular target: T1, human S1P1 receptors (Homo sapiens, UniProt P21453)
T1 construct: host or cells: HEK293
Experiment: S1P1R antagonist assay (fluorescent membrane potential dye, cAMP readout)
Type: cell-based
Conditions: HEK293 cells expressing human S1P1 receptors and CNG channel; 500 nM NECA; S1P1R agonist 10 nM; 90 minutes; read-out: EC50 or IC50 value

T1 sequence (P21453 whole entry): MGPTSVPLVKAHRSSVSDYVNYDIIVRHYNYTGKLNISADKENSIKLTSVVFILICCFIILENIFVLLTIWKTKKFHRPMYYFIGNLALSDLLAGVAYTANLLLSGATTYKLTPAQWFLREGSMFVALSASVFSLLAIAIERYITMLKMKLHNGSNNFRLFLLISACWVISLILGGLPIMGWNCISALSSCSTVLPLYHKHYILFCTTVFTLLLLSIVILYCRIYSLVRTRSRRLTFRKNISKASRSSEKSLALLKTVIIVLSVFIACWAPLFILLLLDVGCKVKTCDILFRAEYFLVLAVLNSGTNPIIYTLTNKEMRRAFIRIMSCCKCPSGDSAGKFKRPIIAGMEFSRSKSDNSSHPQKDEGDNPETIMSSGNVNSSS

| IC50 [µM] | Structure (SMILES) |
| --- | --- |
| > 1 | COc1cc(C(=O)NC(COCc2ccccc2)C(=O)Nc2ccc(Oc3ccccc3)cc2)cc(OC)c1OC (stereo not shown) [Compound 291, 3,4,5-tris(methyloxy)-N-(2-oxo-1-{[(phenylmethyl)oxy]methyl}-2-{[4-(phenyloxy)phenyl]amino}ethyl)benzamide] |
| > 1 | O=C(NC(COCc1ccccc1)C(=O)Nc1ccc(Oc2ccccc2)cc1)c1cccs1 (stereo not shown) [Compound 292, N-(2-oxo-1-{[(phenylmethyl)oxy]methyl}-2-{[4-(phenyloxy)phenyl]amino}ethyl)thiophene-2-carboxamide] |
| > 1 | O=C(Cc1cccs1)NC(COCc1ccccc1)C(=O)Nc1ccc(Oc2ccccc2)cc1 (stereo not shown) [Compound 293, N-(2-oxo-1-{[(phenylmethyl)oxy]methyl}-2-{[4-(phenyloxy)phenyl]amino}ethyl)thien-2-ylacetamide] |
| > 1 | CN(C)c1ccc(C(=O)NC(COCc2ccccc2)C(=O)Nc2ccc(Oc3ccccc3)cc2)cc1 (stereo not shown) [Compound 294, 4-(dimethylamino)-N-(2-oxo-1-{[(phenylmethyl)oxy]methyl}-2-{[4-(phenyloxy)phenyl]amino}ethyl)benzamide] |
| > 1 | CCCCCC(=O)NC(COCc1ccccc1)C(=O)Nc1ccc(Oc2ccccc2)cc1 (stereo not shown) [Compound 295, N-(2-oxo-1-{[(phenylmethyl)oxy]methyl}-2-{[4-(phenyloxy)phenyl]amino}ethyl)hexanamide] |
| > 1 | O=C(NC(COCc1ccccc1)C(=O)Nc1ccc(Oc2ccccc2)cc1)c1cccnc1Cl (stereo not shown) [Compound 296, 2-chloro-N-(2-oxo-1-{[(phenylmethyl)oxy]methyl}-2-{[4-(phenyloxy)phenyl]amino}ethyl)pyridine-3-carboxamide] |
| > 1 | O=C(NC(COCc1ccccc1)C(=O)Nc1ccc(Oc2ccccc2)cc1)c1sc2ccccc2c1Cl (stereo not shown) [Compound 297, 3-chloro-N-(2-oxo-1-{[(phenylmethyl)oxy]methyl}-2-{[4-(phenyloxy)phenyl]amino}ethyl)-1-benzothiophene-2-carboxamide] |
| > 1 | C=CCCC(=O)NC(COCc1ccccc1)C(=O)Nc1ccc(Oc2ccccc2)cc1 (stereo not shown) [Compound 298, N-(2-oxo-1-{[(phenylmethyl)oxy]methyl}-2-{[4-(phenyloxy)phenyl]amino}ethyl)pent-4-enamide] |
| > 1 | O=C(NC(COCc1ccccc1)C(=O)Nc1ccc(Oc2ccccc2)cc1)c1cccc(Cl)c1F (stereo not shown) [Compound 299, 3-chloro-2-fluoro-N-(2-oxo-1-{[(phenylmethyl)oxy]methyl}-2-{[4-(phenyloxy)phenyl]amino}ethyl)benzamide] |
| > 1 | O=C(CCCc1ccccc1)NC(COCc1ccccc1)C(=O)Nc1ccc(Oc2ccccc2)cc1 (stereo not shown) [Compound 300, N-(2-oxo-1-{[(phenylmethyl)oxy]methyl}-2-{[4-(phenyloxy)phenyl]amino}ethyl)-4-phenylbutanamide] |
| 0.3 to 1 | O=C(Cc1ccccc1Br)NC(COCc1ccccc1)C(=O)Nc1ccc(Oc2ccccc2)cc1 (stereo not shown) [Compound 301, N-(2-oxo-1-{[(phenylmethyl)oxy]methyl}-2-{[4-(phenyloxy)phenyl]amino}ethyl)-2-bromophenylacetamide] |
| > 1 | O=C(NC(COCc1ccccc1)C(=O)Nc1ccc(Oc2ccccc2)cc1)C1CCN(c2nccc(C(F)(F)F)n2)CC1 (stereo not shown) [Compound 302, N-(2-oxo-1-{[(phenylmethyl)oxy]methyl}-2-{[4-(phenyloxy)phenyl]amino}ethyl)-1-[4-(trifluoromethyl)pyrimidin-2-yl]piperidine-4-carboxamide] |
| 0.3 to 1 | COCCOCC(=O)NC(COCc1ccccc1)C(=O)Nc1ccc(Oc2ccccc2)cc1 (stereo not shown) [Compound 303, N-(2-oxo-1-{[(phenylmethyl)oxy]methyl}-2-{[4-(phenyloxy)phenyl]amino}ethyl)-2-methoxyethoxyacetamide] |
| > 1 | COc1ccc(CCC(=O)NC(COCc2ccccc2)C(=O)Nc2ccc(Oc3ccccc3)cc2)cc1 (stereo not shown) [Compound 304, N-(2-oxo-1-{[(phenylmethyl)oxy]methyl}-2-{[4-(phenyloxy)phenyl]amino}ethyl)-3-(4-methoxyphenyl)propanamide] |
| ≤ 0.3 | CC(=O)Nc1nc(C)c(S(=O)(=O)NC(COCc2ccccc2)C(=O)Nc2ccc(Oc3ccccc3)cc2)s1 (stereo not shown) [Compound 305, N-(2-oxo-1-{[(phenylmethyl)oxy]methyl}-2-{[4-(phenyloxy)phenyl]amino}ethyl)-2-acetylamino-4-methylthiazol-5-ylsulfonamide] |
| > 1 | CSc1ccc(C(=O)NC(COCc2ccccc2)C(=O)Nc2ccc(Oc3ccccc3)cc2)cc1 (stereo not shown) [Compound 306, 4-(methylthio)-N-(2-oxo-1-{[(phenylmethyl)oxy]methyl}-2-{[4-(phenyloxy)phenyl]amino}ethyl)benzamide] |
| ≤ 0.3 | CSCC(=O)NC(COCc1ccccc1)C(=O)Nc1ccc(Oc2ccccc2)cc1 (stereo not shown) [Compound 307, N-(2-oxo-1-{[(phenylmethyl)oxy]methyl}-2-{[4-(phenyloxy)phenyl]amino}ethyl)-2-(methylthio)acetamide] |

| IC50 [µM] | Structure (SMILES) |
| --- | --- |
| > 1 | COc1ccc(F)cc1C(=O)NC(COCc1ccccc1)C(=O)Nc1ccc(Oc2ccccc2)cc1 (stereo not shown) [Compound 308, 5-fluoro-2-(methyloxy)-N-(2-oxo-1-{[(phenylmethyl)oxy]methyl}-2-{[4-(phenyloxy)phenyl]amino}ethyl)benzamide] |
| > 1 | COc1ccc(C(=O)NC(COCc2ccccc2)C(=O)Nc2ccc(Oc3ccccc3)cc2)c(C)c1 (stereo not shown) [Compound 309, 2-methyl-4-(methyloxy)-N-(2-oxo-1-{[(phenylmethyl)oxy]methyl}-2-{[4-(phenyloxy)phenyl]amino}ethyl)benzamide] |
| > 1 | CC(=O)CCCC(=O)NC(COCc1ccccc1)C(=O)Nc1ccc(Oc2ccccc2)cc1 (stereo not shown) [Compound 310, 5-oxo-N-(2-oxo-1-{[(phenylmethyl)oxy]methyl}-2-{[4-(phenyloxy)phenyl]amino}ethyl)hexanamide] |
| > 1 | Cc1cc(Br)ccc1C(=O)NC(COCc1ccccc1)C(=O)Nc1ccc(Oc2ccccc2)cc1 (stereo not shown) [Compound 311, 4-bromo-2-methyl-N-(2-oxo-1-{[(phenylmethyl)oxy]methyl}-2-{[4-(phenyloxy)phenyl]amino}ethyl)benzamide] |
| > 1 | O=C(CCC(=O)c1cccs1)NC(COCc1ccccc1)C(=O)Nc1ccc(Oc2ccccc2)cc1 (stereo not shown) [Compound 312, 4-oxo-N-(2-oxo-1-{[(phenylmethyl)oxy]methyl}-2-{[4-(phenyloxy)phenyl]amino}ethyl)-4-(2-thienyl)butanamide] |
| 0.3 to 1 | O=C(CSc1ccccc1)NC(COCc1ccccc1)C(=O)Nc1ccc(Oc2ccccc2)cc1 (stereo not shown) [Compound 313, N-(2-oxo-1-{[(phenylmethyl)oxy]methyl}-2-{[4-(phenyloxy)phenyl]amino}ethyl)-2-(phenylthio)acetamide] |
| > 1 | O=C(NC(COCc1ccccc1)C(=O)Nc1ccc(Oc2ccccc2)cc1)c1ccccc1-n1cccc1 (stereo not shown) [Compound 314, N-(2-oxo-1-{[(phenylmethyl)oxy]methyl}-2-{[4-(phenyloxy)phenyl]amino}ethyl)-2-(1H-pyrrol-1-yl)benzamide] |
| > 1 | COCCOCCOCC(=O)NC(COCc1ccccc1)C(=O)Nc1ccc(Oc2ccccc2)cc1 (stereo not shown) [Compound 315, N-(2-oxo-1-{[(phenylmethyl)oxy]methyl}-2-{[4-(phenyloxy)phenyl]amino}ethyl)-2-[2-(methoxy)ethoxy]ethoxyacetamide] |
| > 1 | COc1cc(OC)cc(C(=O)NC(COCc2ccccc2)C(=O)Nc2ccc(Oc3ccccc3)cc2)c1 (stereo not shown) [Compound 316, 3,5-bis(methyloxy)-N-(2-oxo-1-{[(phenylmethyl)oxy]methyl}-2-{[4-(phenyloxy)phenyl]amino}ethyl)benzamide] |
| > 1 | O=C(CCC1CCCCC1)NC(COCc1ccccc1)C(=O)Nc1ccc(Oc2ccccc2)cc1 (stereo not shown) [Compound 317, N-(2-oxo-1-{[(phenylmethyl)oxy]methyl}-2-{[4-(phenyloxy)phenyl]amino}ethyl)-3-cyclohexylpropanamide] |
| > 1 | O=C(CCCC(=O)c1ccccc1)NC(COCc1ccccc1)C(=O)Nc1ccc(Oc2ccccc2)cc1 (stereo not shown) [Compound 318, 5-oxo-N-(2-oxo-1-{[(phenylmethyl)oxy]methyl}-2-{[4-(phenyloxy)phenyl]amino}ethyl)-5-phenylpentanamide] |
| > 1 | CC(=O)c1ccc(OCC(=O)NC(COCc2ccccc2)C(=O)Nc2ccc(Oc3ccccc3)cc2)cc1 (stereo not shown) [Compound 319, N-(2-oxo-1-{[(phenylmethyl)oxy]methyl}-2-{[4-(phenyloxy)phenyl]amino}ethyl)-4-acetylphenoxyacetamide] |
| > 1 | COc1ccc(CCCC(=O)NC(COCc2ccccc2)C(=O)Nc2ccc(Oc3ccccc3)cc2)cc1OC (stereo not shown) [Compound 320, 4-[3,4-bis(methyloxy)phenyl]-N-(2-oxo-1-{[(phenylmethyl)oxy]methyl}-2-{[4-(phenyloxy)phenyl]amino}ethyl)butanamide] |
| > 1 | O=C(NC(COCc1ccccc1)C(=O)Nc1ccc(Oc2ccccc2)cc1)c1ccc(-c2cccc(C(F)(F)F)c2)o1 (stereo not shown) [Compound 321, N-(2-oxo-1-{[(phenylmethyl)oxy]methyl}-2-{[4-(phenyloxy)phenyl]amino}ethyl)-5-[3-(trifluoromethyl)phenyl]furan-2-carboxamide] |
| > 1 | O=C(CCN1C(=O)c2ccccc2C1=O)NC(COCc1ccccc1)C(=O)Nc1ccc(Oc2ccccc2)cc1 (stereo not shown) [Compound 322, N-(2-oxo-1-{[(phenylmethyl)oxy]methyl}-2-{[4-(phenyloxy)phenyl]amino}ethyl)-3-(1,3-dioxoisoindolin-2-yl)propanamide] |
| 0.3 to 1 | O=C(CCCC(=O)c1cccs1)NC(COCc1ccccc1)C(=O)Nc1ccc(Oc2ccccc2)cc1 (stereo not shown) [Compound 323, 5-oxo-N-(2-oxo-1-{[(phenylmethyl)oxy]methyl}-2-{[4-(phenyloxy)phenyl]amino}ethyl)-5-(2-thienyl)pentanamide] |
| > 1 | O=C(NC(COCc1ccccc1)C(=O)Nc1ccc(Oc2ccccc2)cc1)C(=O)c1ccccc1 (stereo not shown) [Compound 324, N-(2-oxo-1-{[(phenylmethyl)oxy]methyl}-2-{[4-(phenyloxy)phenyl]amino}ethyl)-2-oxo-2-phenylacetamide] |
